Experimental data published in patent US20080312435A1, “Imine Compound” (TAISHO PHARMACEUTICAL CO., LTD., priority 2004, published 2008).

Tests used:
human CB2 receptor = target: T1, human CB2 receptor (Homo sapiens, UniProt P34972); assay: Human CB2 receptor binding inhibition test ([3H]CP-55,940, CHO membrane fractions); conditions: [3H]CP-55,940, membrane fractions of CHO cells stably expressing human CB2 receptor, 25° C., 2 hours; read-out: CB2 IC50 (Inhibition of binding to human CB2 receptor)
T1 construct: expressed in transfected cells
T1 sequence (P34972 whole entry): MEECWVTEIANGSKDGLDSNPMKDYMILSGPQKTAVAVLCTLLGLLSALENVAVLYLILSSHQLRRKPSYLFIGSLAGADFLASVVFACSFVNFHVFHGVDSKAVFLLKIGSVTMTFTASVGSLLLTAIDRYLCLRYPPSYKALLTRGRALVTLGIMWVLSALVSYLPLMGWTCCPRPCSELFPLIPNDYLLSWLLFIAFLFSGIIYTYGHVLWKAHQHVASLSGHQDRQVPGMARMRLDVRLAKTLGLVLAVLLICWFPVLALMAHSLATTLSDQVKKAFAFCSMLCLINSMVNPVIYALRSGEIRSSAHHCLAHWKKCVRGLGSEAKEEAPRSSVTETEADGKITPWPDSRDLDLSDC
Description: Human CB2 Receptor Binding Inhibition Test
First, cDNA sequence (Munro et al., Nature, 1993, 365, 61-65) encoding a human CB2 receptor was inserted in the forward direction in an animal-cell expression vector, pTARGET Vector (manufactured by Promega) at a region downstream of a CMV promoter. Host cells CHO-DHFR(−) were transfected with the obtained expression vector with the aid of Lipofectamine (manufactured by Invitrogen) to obtain cells capable of stably expressing the CB2 receptor.
After the filtrate was washed with an assay buffer containing 0.1% bovine serum albumin, the radioactivity on the glass filter was measured by a liquid scintillation counter. Nonspecific binding was measured in the presence of 2.0 μM CP-55,940 (manufactured by Tocris). 50% inhibitory concentration (IC50 value) of the test compound for the specific binding was obtained.

Structure (SMILES) | IC50 (human CB2 receptor) [nM] | melting point [°C]
COCCCn1c(C)c(C)s/c1=N\C(=O)c1cccc(C(F)(F)F)c1F [compound 105] | 1.7 | 104 to 106
CCc1s/c(=N\C(=O)c2cccc(C(F)(F)F)c2F)n(CC2CC2)c1C [compound 109] | 1.3 | 164 to 166
Cc1c(C(C)C)s/c(=N\C(=O)c2cccc(C(F)(F)F)c2F)n1CC1CC1 [compound 113] | 1.1 | 64 to 66
COCCn1c(C)c(C(C)C)s/c1=N\C(=O)c1cccc(C(F)(F)F)c1F [compound 114] | 1.6 | 132 to 134
Cc1c(C(C)(C)C)s/c(=N\C(=O)c2ccccc2C(F)(F)F)n1C [compound 117] | 5.6 | 74 to 76
Cc1c(C(C)(C)C)s/c(=N\C(=O)c2ccccc2Cl)n1C [compound 119] | 18.5 | 119 to 121
Cc1c(C(C)(C)C)s/c(=N\C(=O)c2ccccc2Br)n1C [compound 120] | 7.4 | 182 to 184
Cc1c(C(C)(C)C)s/c(=N\C(=O)c2ccccc2I)n1C [compound 122] | 8.9 | 83 to 85
Cc1c(C(C)(C)C)s/c(=N\C(=O)c2cccc(Cl)c2F)n1C [compound 129] | 7.1 | 203 to 205
Cc1c(C(C)(C)C)s/c(=N\C(=O)c2cc(F)ccc2Cl)n1C [compound 130] | 8.5 | 125 to 126
Cc1c(C(C)(C)C)s/c(=N\C(=O)c2cc(F)ccc2Br)n1C [compound 131] | 5.6 | 161 to 162
Cc1c(C(C)(C)C)s/c(=N\C(=O)c2cc(Br)ccc2F)n1C [compound 132] | 15.7 | 144 to 145
Cc1c(C(C)(C)C)s/c(=N\C(=O)c2cc(Cl)ccc2Cl)n1C [compound 133] | 7.3 | 171 to 173
Cc1c(C(C)(C)C)s/c(=N\C(=O)c2c(F)ccc(F)c2F)n1C [compound 134] | 6.8 | 143 to 145
Cc1c(C(C)(C)C)s/c(=N\C(=O)c2cc(F)c(F)cc2Cl)n1C [compound 135] | 11.9 | 145 to 146
Cc1c(C(C)(C)C)s/c(=N\C(=O)c2cc(F)c(Cl)cc2Cl)n1C [compound 136] | 11.6 | 205 to 207
Cc1ccc(F)cc1C(=O)/N=c1\sc(C(C)(C)C)c(C)n1C [compound 138] | 12 | 145 to 146
Cc1c(Cl)cccc1C(=O)/N=c1\sc(C(C)(C)C)c(C)n1C [compound 139] | 7.4 | 161 to 162
Cc1c(Br)cccc1C(=O)/N=c1\sc(C(C)(C)C)c(C)n1C [compound 140] | 6.1 | 143 to 144
Cc1c(C(C)(C)C)s/c(=N\C(=O)c2cccc(C(F)(F)F)c2F)n1C [compound 141] | 13.9 | 176 to 178
Cc1c(C(C)(C)C)s/c(=N\C(=O)c2cc(F)ccc2C(F)(F)F)n1C [compound 143] | 7.4 | 83 to 85
Cc1ccc(F)c(C(=O)/N=c2\sc(C(C)(C)C)c(C)n2C)c1F [compound 144] | 4.3 | 140 to 142
COc1ccc(Cl)cc1C(=O)/N=c1\sc(C(C)(C)C)c(C)n1C [compound 146] | 6.6 | 177 to 179
COc1cc(Cl)ccc1C(=O)/N=c1\sc(C(C)(C)C)c(C)n1C [compound 147] | 9.6 | 117 to 119

Structure (SMILES) | IC50 (human CB2 receptor) [nM] | melting point [°C]
Cc1c(C(C)(C)C)s/c(=N\C(=O)C(F)(F)C(F)(F)C(F)(F)F)n1C [compound 149] | 12.2 | 180 to 182
CCn1c(C)c(C(C)(C)C)s/c1=N\C(=O)c1ccccc1C(F)(F)F [compound 151] | 3.2 | 74 to 76
CCn1c(C)c(C(C)(C)C)s/c1=N\C(=O)c1ccccc1OC(F)(F)F [compound 153] | 17.8 | 104 to 105
CCn1c(C)c(C(C)(C)C)s/c1=N\C(=O)c1cc(Br)ccc1F [compound 154] | 5.9 | 105 to 106
CCn1c(C)c(C(C)(C)C)s/c1=N\C(=O)c1cc(F)ccc1Br [compound 155] | 4.3 | 115 to 116
CCn1c(C)c(C(C)(C)C)s/c1=N\C(=O)c1ccc(F)cc1Br [compound 156] | 11.4 | 99 to 100
CCn1c(C)c(C(C)(C)C)s/c1=N\C(=O)c1cc(I)ccc1F [compound 157] | 12.1 | 87 to 89
CCn1c(C)c(C(C)(C)C)s/c1=N\C(=O)c1cc(Cl)ccc1Cl [compound 158] | 7.1 | 127 to 128
CCn1c(C)c(C(C)(C)C)s/c1=N\C(=O)c1cc(F)c(F)cc1Cl [compound 159] | 8.4 | 107 to 108
CCn1c(C)c(C(C)(C)C)s/c1=N\C(=O)c1cc(F)c(Cl)cc1Cl [compound 160] | 8.5 | 112 to 114
CCn1c(C)c(C(C)(C)C)s/c1=N\C(=O)c1cc(F)ccc1C [compound 161] | 9.7 | 108 to 109
CCn1c(C)c(C(C)(C)C)s/c1=N\C(=O)c1ccc(Cl)cc1C [compound 162] | 12 | 125 to 126
CCn1c(C)c(C(C)(C)C)s/c1=N\C(=O)c1ccc(C)cc1Br [compound 163] | 14.9 | 100 to 102
CCn1c(C)c(C(C)(C)C)s/c1=N\C(=O)c1cc(F)ccc1C(F)(F)F [compound 164] | 4.1 | 103 to 104
CCn1c(C)c(C(C)(C)C)s/c1=N\C(=O)c1cccc(C(F)(F)F)c1F [compound 165] | 4.3 | 97 to 99
CCn1c(C)c(C(C)(C)C)s/c1=N\C(=O)c1cc(Cl)ccc1OC [compound 167] | 4.6 | 108 to 109
CCn1c(C)c(C(C)(C)C)s/c1=N\C(=O)c1cnccc1C(F)(F)F [compound 170] | 13.8 | 110 to 112
CCn1c(C)c(C(C)(C)C)s/c1=N\C(=O)c1cc(C(F)(F)F)ccc1OC(F)F [compound 174] | 11.7 | 95 to 97
Cc1cccc(C(=O)/N=c2\sc(C(C)(C)C)c(C)n2CC2CC2)c1 [compound 179] | 17.8 | 132 to 134
Cc1c(C(C)(C)C)s/c(=N\C(=O)c2ccccc2F)n1CC1CC1 [compound 185] | 11 | 182 to 183
Cc1c(C(C)(C)C)s/c(=N\C(=O)c2cccc(I)c2)n1CC1CC1 [compound 192] | 13.2 | 114 to 115
COc1cccc(C(=O)/N=c2\sc(C(C)(C)C)c(C)n2CC2CC2)c1 [compound 194] | 19.1 | 108 to 109
Cc1c(C(C)(C)C)s/c(=N\C(=O)c2cccc(OC(F)(F)F)c2)n1CC1CC1 [compound 196] | 7.6 | 106 to 108
